Assays:
Assay type in all cases: cell-based
[1] = system: protoplasts of the Primula rupestris petals; test: FLIPR calcium signal detection in protoplasts of Primula rupestris petals
Text: According to the method in Example 4, the EGTA solution and the CaCl2 solution were combined to treat the change of the protoplasts of the Primula rupestris petals, and the parameters of the examples and comparative examples are shown in Table 7:

[2] = system: protoplasts of the Primula rupestris sepals; test: FLIPR calcium signal detection in protoplasts of Primula rupestris sepals
Text: According to the method in Example 4, the EGTA solution and the CaCl2 solution were combined to treat the change of the protoplasts of the Primula rupestris sepals, and the parameters of the examples and comparative examples are shown in Table 6: […]

[3] = system: protoplasts of the Primula rupestris leaves; test: FLIPR calcium signal detection in protoplasts of Primula rupestris leaves
Method: (§1) (1) The protoplasts prepared in Example 1 were taken out, and mixed with the calcium dye according to a ratio of protoplast: calcium dye=1:1, and a group added with only a calcium dye and without protoplasts was taken as a control group, and added to a 96-well plate of a cell plate, as shown in Table 1:
(2) A buffer (helps buffer) was used to prepare a 96-well plate of the cell plate with different concentrations of CaCl2 solutions: CaCl2 (0, 10, 20, 40, 60, 80, 100, 150, 200, 300, and 500 mM). A group without adding protoplasts was taken as a control group.
(3) The cell plate was wrapped with a plastic wrap, and incubated at 37° C. for 1 h. After the incubation, the two plates were balanced, centrifuged at 600 rpm at 4° C. for 1-2 min, and loaded on the machine.
(4) The above experiment was repeated for 10 times to observe whether the results were consistent. The order of concentrations from top to bottom in the legend on the right in FIG. 3 and the order of concentrations from left to right in Table 2 can be in one-to-one correspondence.
The buffer was used to prepare a 96-well plate of the cell plate with different concentrations of CaCl2 solutions: CaCl2 (0, 100, 200, 220, 240, 260, 280, 300, 350, 400, and 450 mM). The cell plate was wrapped with a plastic wrap, and incubated at 37° C. for 1 h. After the incubation, the two plates were balanced, centrifuged at 600 rpm at 4° C. for 1-2 min, and loaded on the machine. The order of concentrations from top to bottom in the legend on the right in FIG. 5 and the order of concentrations from left to right in Table 3 can be in one-to-one correspondence:
Using step (1) in Example 2, a buffer was used to prepare a 96-well plate of a cell plate with different concentrations of EGTA solutions: EGTA solution (0, 0.1, 0.5, 1.0, 5, 10, 25, 50, 100, 150, and 200 mM).
The cell plate was wrapped with a plastic wrap, and incubated at 37° C. for 1 h. After the incubation, the two plates were balanced, centrifuged at 600 rpm at 4° C. for 1-2 min, and loaded on the machine.
The above experiment was repeated for 10 times to observe whether the results were consistent. The order of concentrations from top to bottom in the legend on the right in FIG. 7 and the order of concentrations from left to right in Table 4 can be in one-to-one correspondence.
as §1, with “dye=1:1 till a total of 150 μL,” for “dye=1:1,”, “plate.” for “plate, as shown in Table 1:”
(2) 220 mM of CaCl2 solution and 100 μM of EGTA solution were added to the 96-well plate of the cell plate in step (1).
(4) The above experiment was repeated for 10 times to observe whether the results were consistent.
The difference was that the EGTA solution and the CaCl2 solution in step (3) had different concentrations, and the corresponding parameters are shown in Table 5: […]

[4] = system: protoplasts of the valerian leaves; test: FLIPR calcium signal detection in protoplasts of valerian leaves
[5] = method of Example 2, FIG. 18-19
[6] = method of Example 2, FIG. 25-26

Row | Structure (SMILES) | effect of composite reaction of EGTA solution and CaCl2 solution on calcium signal fluorescence ([1]; EGTA plus CaCl2, Table 7 settings, FIG. 22-23) | confirmed concentration of the calcium signal chelator EGTA solution ([1]; method of Example 3, FIG. 20-21) [µM] | effect of composite reaction of EGTA solution and CaCl2 solution on calcium signal fluorescence ([2]; EGTA plus CaCl2, Table 6 settings, FIG. 15-16) | confirmed concentration of the calcium signal chelator EGTA solution ([2]; method of Example 3, FIG. 13-14) [µM] | effect of composite reaction of EGTA solution and CaCl2 solution on calcium signal fluorescence ([3]; EGTA plus CaCl2 1:1, Table 5 settings, FIG. 8-9) | EGTA solution concentration with relatively excellent chelation effect on the calcium signal ([3]; EGTA series 0-200, 37° C. 1 h, FIG. 6-7) [µM] | effect of composite reaction of EGTA solution and CaCl2 solution on calcium signal fluorescence ([4]; EGTA plus CaCl2, Table 8 settings, FIG. 29-30) | confirmed concentration of the calcium signal chelator EGTA solution ([4]; method of Example 3, FIG. 27-28) [µM] | CaCl2 concentration range in which the calcium signal changes significantly [1, 5] [mM] | concentration of the CaCl2 solution at which the calcium signal surges significantly [1, 5] [mM] | CaCl2 concentration at which the calcium signal changes significantly ([2]; method of Example 2, FIG. 11-12) [mM] | concentration of the CaCl2 solution at which the calcium signal surges significantly ([3]; first series 0-500 mM CaCl2, 37° C. 1 h, FIG. 2-3) [mM] | concentration of the CaCl2 solution at which the calcium signal surges significantly ([3]; refined series 0-450 mM CaCl2, 37° C. 1 h, FIG. 4-5) [mM] | confirmed concentration of the CaCl2 solution (exogenous calcium signal stimulation) ([3]; refined series, FIG. 4-5) [mM] | CaCl2 concentration range in which the calcium signal changes significantly [4, 6] [mM] | concentration of the CaCl2 solution at which the calcium signal surges significantly [4, 6] [mM]
1 | O=C(O)CN(CCOCCOCCN(CC(=O)O)CC(=O)O)CC(=O)O [EGTA, ethylene glycol tetraacetic acid] | can chelate the change of the fluorescence caused by the exogenous calcium signal | 5 to 200 | can chelate the change of the fluorescence caused by the exogenous calcium signal | 5 to 200 | can chelate the change of the fluorescence caused by the exogenous calcium signal | 5 to 200 | can chelate the change of the fluorescence caused by the exogenous calcium signal | 0.1 to 200 |  |  |  |  |  |  |  | 
2 | [Ca+2].[Cl-].[Cl-] [CaCl2] |  |  |  |  |  |  |  |  | 350 to 450 | 350 | 350 | 300 | 220 | 220 to 450 | 220 to 450 | 220

Source: patent US12498323B2, “Use of fluorescent imaging plate reader (FLIPR) high-throughput real-time fluorescence detection and analysis system in detection of calcium signals in plants” (Guizhou Normal University, priority 2022, dated 2025)
